The results in this text go back to patent publication US7323469B2, “7H-pyrrolo[2,3-d]pyrimidine derivatives” (Novartis AG, priority 2001, dated 2008).

Molecules are shown by their SMILES.

In the case of `CN(C)Cc1ccc(-c2cc3c(Nc4cccc(Cl)c4)ncnc3[nH]2)cc1.Cl`, the melting point lay within 280 to 283 °C. The compound `CN1CCN(Cc2ccc(-c3cc4c(Nc5cccc(Cl)c5)ncnc4[nH]3)cc2)CC1.Cl.Cl` had a melting point of 227 to 229 °C. To `Cl.Clc1cccc(Nc2ncnc3[nH]c(-c4ccc(CN5CCOCC5)cc4)cc23)c1` belongs 278 to 280 °C. Then `CN(C)Cc1ccc(-c2cc3c(Nc4ccc(F)c(Cl)c4)ncnc3[nH]2)cc1` [Example 1, (3-Chloro-4-fluoro-phenyl)-[6-(4-dimethylaminomethyl-phenyl)-7H-pyrrolo[2,3-d]pyrimidin-4-yl]-amine], with 274 to 276 °C; and `CC1CN(Cc2ccc(-c3cc4c(Nc5ccc(F)c(Cl)c5)ncnc4[nH]3)cc2)CC(C)N1` (stereo not shown) [Example 8, (3-Chloro-4-fluoro-phenyl)-{6-[4-(3,5-dimethyl-piperazin-1-ylmethyl)-phenyl]-7H-pyrrolo[2,3-d]pyrimidin-4-yl}-amine], with 261 to 263 °C.

Turning to `Fc1ccc(Nc2ncnc3[nH]c(-c4ccc(CNCCN5CCOCC5)cc4)cc23)cc1Cl` [Example 8b, (3-Chloro-4-fluoro-phenyl)-(6-{4-[(2-morpholin-4-yl-ethyl-amino)-methyl]-phenyl}-7H-pyrrolo[2,3-d]pyrimidin-4-yl)-amine], the melting point was in the range of 224 to 226 °C.

`CCN(CC)CCNCc1ccc(-c2cc3c(Nc4ccc(F)c(Cl)c4)ncnc3[nH]2)cc1` [Example 8c, N-{4-[4-(3-Chloro-4-fluoro-phenylamino)-7H-pyrrolo[2,3-d]pyrimidin-6-yl]-benzyl}-N′,N′-diethyl-ethane-1,2-diamine] registered a melting point of 229 to 231 °C. To `CC(C)NCc1ccc(-c2cc3c(Nc4ccc(F)c(Cl)c4)ncnc3[nH]2)cc1` [Example 8d, (3-Chloro-4-fluoro-phenyl)-{6-[4-(iso-propylamino-methyl)-phenyl]-7H-pyrrolo[2,3-d]pyrimidin-4-yl}-amine] belongs 282 to 284 °C; to `C[C@@H](Nc1ncnc2[nH]c(-c3ccc(CN4CCN(C)CC4)cc3)cc12)c1ccccc1` [Example 9, {6-[4-(4-Methyl-piperazin-1-ylmethyl)-phenyl]-7H-pyrrolo[2,3-d]pyrimidin-4-yl}-((R)-1-phenyl-ethyl)-amine], 248 to 250 °C. To `CC1CN(Cc2ccc(-c3cc4c(N[C@H](C)c5ccccc5)ncnc4[nH]3)cc2)CC(C)N1` (stereo partly drawn) [Example 16, {6-[4-(3,5-Dimethyl-piperazin-1-ylmethyl)-phenyl]-7H-pyrrolo[2,3-d]pyrimidin-4-yl}-((R)-1-phenyl-ethyl)-amine] belongs 208 to 210 °C; to `C[C@@H](Nc1ncnc2[nH]c(-c3ccc(CNC4CCOCC4)cc3)cc12)c1ccccc1` [Example 16b, ((R)-1-Phenyl-ethyl)-(6-{4-[(tetrahydro-pyran-4-ylamino)-methyl]-phenyl}-7H-pyrrolo[2,3-d]pyrimidin-4-yl)-amine], 253 to 255 °C. On to `CCN(CC)CCNCc1ccc(-c2cc3c(N[C@H](C)c4ccccc4)ncnc3[nH]2)cc1` [Example 16c, N,N-Diethyl-N′-{4-[4-((R)-1-phenyl-ethyl-amino)-7H-pyrrolo[2,3-d]pyrimidin-6-yl]-benzyl}-ethane-1,2-diamine], for which the melting point lay within 145 to 150 °C.

Take `C[C@@H](Nc1ncnc2[nH]c(-c3ccc(CNC(C)(C)C)cc3)cc12)c1ccccc1` [Example 16d, {6-[4-(tert-Butylamino-methyl)-phenyl]-7H-pyrrolo[2,3-d]pyrimidin-4-yl}-((R)-1-phenyl-ethyl)-amine]: the melting point is more than 300 °C.

With `CC(C)NCc1ccc(-c2cc3c(N[C@H](C)c4ccccc4)ncnc3[nH]2)cc1` [Example 16e, {6-[4-(isopropylamino-methyl)-phenyl]-7H-pyrrolo[2,3-d]pyrimidin-4-yl}-((R)-1-phenyl-ethyl)-amine], the melting point lay in the range of 266 to 268 °C. Consider `CCNCc1ccc(-c2cc3c(N[C@H](C)c4ccccc4)ncnc3[nH]2)cc1` [Example 16f, [6-(4-Ethylaminomethyl-phenyl)-7H-pyrrolo[2,3-d]pyrimidin-4-yl]-((R)-1-phenyl-ethyl)-amine], for which the melting point is 236 to 238 °C. To `CN(C)Cc1ccc(-c2cc3c(Nc4ccc(OCc5ccccc5)cc4)ncnc3[nH]2)cc1` [Example 17, (4-Benzyloxy-phenyl)-[6-(4-dimethylaminomethyl-phenyl)-7H-pyrrolo[2,3-d]pyrimidin-4-yl]-amine] belongs 272 to 274 °C; to `c1ccc(COc2ccc(Nc3ncnc4[nH]c(-c5ccc(CN6CCCCC6)cc5)cc34)cc2)cc1` [Example 19, (4-Benzyloxy-phenyl)-[6-(4-piperidin-1-ylmethyl-phenyl)-7H-pyrrolo[2,3-d]pyrimidin-4-yl]-amine], 256 to 258 °C; to `c1ccc(COc2ccc(Nc3ncnc4[nH]c(-c5ccc(CN6CCOCC6)cc5)cc34)cc2)cc1` [Example 20, (4-Benzyloxy-phenyl)-[6-(4-morpholin-4-ylmethyl-phenyl)-7H-pyrrolo[2,3-d]pyrimidin-4-yl]-amine], 272 to 274 °C. Then `CCN(CC)Cc1ccc(-c2cc3c(Nc4ccc(OCc5ccccc5)cc4)ncnc3[nH]2)cc1` [Example 21, (4-Benzyloxy-phenyl)-[6-(4-diethylaminomethyl-phenyl)-7H-pyrrolo[2,3-d]pyrimidin-4-yl]-amine], with 271 to 273 °C. To `CCN1CCN(Cc2ccc(-c3cc4c(Nc5ccc(OCc6ccccc6)cc5)ncnc4[nH]3)cc2)CC1` [Example 22, (4-Benzyloxy-phenyl)-{6-[4-(4-ethyl-piperazin-1-ylmethyl)-phenyl]-7H-pyrrolo[2,3-d]pyrimidin-4-yl}-amine] belongs 256 to 258 °C. `c1ccc(COc2ccc(Nc3ncnc4[nH]c(-c5ccc(CN6CCCC6)cc5)cc34)cc2)cc1` [Example 23, (4-Benzyloxy-phenyl)-[6-(4-pyrrolidin-1-ylmethyl-phenyl)-7H-pyrrolo[2,3-d]pyrimidin-4-yl]-amine] yielded a melting point of 265 to 267 °C. As for `CC1CN(Cc2ccc(-c3cc4c(Nc5ccc(OCc6ccccc6)cc5)ncnc4[nH]3)cc2)CC(C)N1` (stereo not shown) [Example 24, (4-Benzyloxy-phenyl)-{6-[4-(3,5-dimethyl-piperazin-1-ylmethyl)-phenyl]-7H-pyrrolo[2,3-d]pyrimidin-4-yl}-amine], the melting point is 269 to 271 °C.

Consider `C[C@@H](Nc1ncnc2[nH]c(-c3cccc(CN(C)C)c3)cc12)c1ccccc1` [Example 25, [6-(3-Dimethylaminomethyl-phenyl)-7H-pyrrolo[2,3-d]pyrimidin-4-yl]-((R)-1-phenyl-ethyl)-amine], for which the melting point lay within 108 to 110 °C. The compound `CCN1CCN(Cc2cccc(-c3cc4c(N[C@H](C)c5ccccc5)ncnc4[nH]3)c2)CC1` [Example 27, {6-[3-(4-Ethyl-piperazin-1-ylmethyl)-phenyl]-7H-pyrrolo[2,3-d]pyrimidin-4-yl}-((R)-1-phenyl-ethyl)-amine] showed a melting point of 128 to 130 °C. In turn, `C[C@@H](Nc1ncnc2[nH]c(-c3cccc(CN4CCCC4)c3)cc12)c1ccccc1` [Example 28, ((R)-1-Phenyl-ethyl)-[6-(3-pyrrolidin-1-ylmethyl-phenyl)-7H-pyrrolo[2,3-d]pyrimidin-4-yl]-amine] yielded a melting point of 90 to 92 °C. `C[C@@H](Nc1ncnc2[nH]c(-c3cccc(CN4CCN(C)CC4)c3)cc12)c1ccccc1` [Example 29, {6-[3-(4-Methyl-piperazin-1-ylmethyl)-phenyl]-7H-pyrrolo[2,3-d]pyrimidin-4-yl}-((R)-1-phenyl-ethyl)-amine] had a melting point of 112 to 115 °C. Then `C[C@@H](Nc1ncnc2[nH]c(-c3cccc(CN4CCCCC4)c3)cc12)c1ccccc1` [Example 30, ((R)-1-Phenyl-ethyl)-[6-(3-piperidin-1-ylmethyl-phenyl)-7H-pyrrolo[2,3-d]pyrimidin-4-yl]-amine], with 108 to 110 °C.

`C[C@@H](Nc1ncnc2[nH]c(-c3cccc(CN4CCOCC4)c3)cc12)c1ccccc1` [Example 31, [6-(3-Morpholin-4-ylmethyl-phenyl)-7H-pyrrolo[2,3-d]pyrimidin-4-yl]-((R)-1-phenyl-ethyl)-amine] displayed a melting point of 242 to 243 °C. Then `CC1CN(Cc2cccc(-c3cc4c(N[C@H](C)c5ccccc5)ncnc4[nH]3)c2)CC(C)N1` (stereo partly drawn) [Example 32, {6-[3-(3,5-Dimethyl-piperazin-1-ylmethyl)-phenyl]-7H-pyrrolo[2,3-d]pyrimidin-4-yl}-((R)-1-phenyl-ethyl)-amine], with 128 to 130 °C; and `CN(C)Cc1cccc(-c2cc3c(Nc4ccc(F)c(Cl)c4)ncnc3[nH]2)c1` [Example 33, (3-Chloro-4-fluoro-phenyl)-[6-(3-dimethylaminomethyl-phenyl)-7H-pyrrolo[2,3-d]pyrimidin-4-yl]-amine], with 218 to 220 °C; and `CCN1CCN(Cc2cccc(-c3cc4c(Nc5ccc(F)c(Cl)c5)ncnc4[nH]3)c2)CC1` [Example 35, (3-Chloro-4-fluoro-phenyl)-{6-[3-(4-ethyl-piperazin-1-ylmethyl)-phenyl]-7H-pyrrolo[2,3-d]pyrimidin-4-yl}-amine], with 238 to 240 °C. Compound `Fc1ccc(Nc2ncnc3[nH]c(-c4cccc(CN5CCCC5)c4)cc23)cc1Cl` [Example 36, (3-Chloro-4-fluoro-phenyl)-[6-(3-pyrrolidin-1-ylmethyl-phenyl)-7H-pyrrolo[2,3-d]pyrimidin-4-yl]-amine] had a melting point of 238 to 240 °C. Then `CN1CCN(Cc2cccc(-c3cc4c(Nc5ccc(F)c(Cl)c5)ncnc4[nH]3)c2)CC1` [Example 37, (3-Chloro-4-fluoro-phenyl)-{6-[3-(4-methyl-piperazin-1-ylmethyl)-phenyl]-7H-pyrrolo[2,3-d]pyrimidin-4-yl}-amine], with 221 to 223 °C. The compound `Fc1ccc(Nc2ncnc3[nH]c(-c4cccc(CN5CCCCC5)c4)cc23)cc1Cl` [Example 38, (3-Chloro-4-fluoro-phenyl)-[6-(3-piperidin-1-ylmethyl-phenyl)-7H-pyrrolo[2,3-d]pyrimidin-4-yl]-amine] returned a melting point of 233 to 235 °C.
